Test results reported in patent publication US20260139063A1, “PRE-MEDICATION AND IMPROVED TREATMENT REGIMEN” (MonTa Biosciences ApS, priority 2022, published 2026).
Entries after “also recorded” stand apart in the source; their conditions may differ.

What was measured:
[1] = system: plasma cytokines and chemokines; assay: Clinical plasma biomarkers (cytokines and chemokines, MSD multiplex panels) after MBS8(1V270) with or without tocilizumab pre-medication; type: in vivo, human; conditions: patients
Procedure: FIG. 1: Detection of cytokines in plasma of subjects treated with 0.1 mg/kg MBS8(1V270) without (left panels) or with (right panels) pre-medication with tocilizumab (8 mg/kg). The measurements were done using GLP/GCP compliant multiplex panels purchased from Meso Scale Discovery (MSD) (Cytokine Panel 1 Human kit, Cytokine Panel 2 Human kit and Chemokine Panel 1 Human kit). Data treatment was performed using GraphPad Prism 9 software. Selected biomarkers were IL-6 (FIG. 1A), TNF-α (FIG. 1B), IL-1RA (FIG. 1C), IFN-γ (FIG. 1D), IP-10 (FIG. 1E), IL-1β (FIG. 1F), IL-8 (FIG. 1G) and IL-10 (FIG. 1H).
MBS8(1V270) was administered to all subjects at 0.1 mg/kg by IV infusion for a duration of 2 hours for four dosing occasions. Infusions were given one week apart on Days 1, 8, 15, and 22. Patients pretreated with tocilizumab were administered tocilizumab (8 mg/kg) prior to MBS8(1V270) infusion on the first dosing occasion (day 1) as a CRS preventive measure. The biomarkers were measured using GLP/GCP compliant and validated multiplex panels purchased from MSD in a quantitative procedure to measure these cytokines and chemokines.
The following plasma biomarkers were identified in this clinical study: safety-related (IL-1β, IL-8, IL-6, TNF-α and IL-10) and pharmacodynamics biomarkers (IFN-γ, MCP-1, IP-10, IL-1RA and IL-12p70) (FIG. 1A-1H). Blood samples were taken at pre-dose (0), 2 h, 8 h, and 24 h post-end of infusion and processed to plasma and frozen for later biomarker analyses.

[2] = system: subjects presenting with advanced solid tumors; assay: Occurrence of Cytokine Release Syndrome (CRS), CTCAE version 5.0 grading, on all dosing occasions; type: in vivo, human
Procedure: FIG. 2: Table overview (FIG. 2A) of CRS occurrences in patients were assessed according to CTCAE grading, in patients treated with MBS8(1V270) on 4 occasions on day 1, 8, 15 and 22. Patient (pt) 1-3 were not pretreated with tocilizumab, whereas pt 4-7 were pretreated with tocilizumab prior to dosing with MBS8(1V270). All subjects received MBS8(1V270) at 0.1 mg/kg at each dosing occasion, and the clinical picture observed and rated according to the CTCAE grading shown in FIG. 2B. N/A=Not applicable. Table overview (FIG. 2B) of official CTCAE grading of patients with CRS symptoms as used for grading of CRS severeness for patients in FIG. 2A.CRS grading was done according to CTCAE Version 5.0.
MBS8(1V270) was administered to all subjects at 0.1 mg/kg by IV infusion for a duration of 2 hours for four dosing occasions. Infusions were given one week apart on Days 1, 8, 15, and 22. Patients pretreated with tocilizumab were administered tocilizumab (8 mg/kg) prior to MBS8(1V270) infusion on the first dosing occasion as a CRS preventive measure. […] Seven subjects presenting with advanced solid tumors were treated with MBS8(1V270) at 0.1 mg/kg once weekly on four dosing occasions as described in Example 1. […] Tocilizumab was administered as a one-hour intravenous infusion at 8 mg/kg just prior to MBS8(1V270) administration.
Occurrence of Cytokine Release Syndrome (CRS) was assessed on all dosing occasions. CRS was defined in accordance with Common Terminology Criteria for Adverse Events (CTCAE) version 5.0 as “a disorder characterized by fever, tachypnea, headache, tachycardia, hypotension, rash, and/or hypoxia caused by the release of cytokines”.

[3] = tocilizumab 8 mg/kg prior to MBS8(1V270) 0.1 mg/kg IV
[4] = tocilizumab premedicated patients (pt 4-7): tocilizumab 8 mg/kg IV day 1 just prior to MBS8(1V270) 0.1 mg/kg IV, days 1, 8, 15, 22

With “tocilizumab: humanized monoclonal antibody against the interleukin-6 receptor (IL-6R), CAS: 375823-41-9” the “IFN-γ plasma level after tocilizumab premedication compared with without” value [1, 3] was “higher levels”, the “IL-6 plasma level after tocilizumab premedication compared with without” value [1, 3] was “higher levels” and the “IP-10 plasma level after tocilizumab premedication compared with without” value [1, 3] was “higher levels”. For the same substance, the “interference of tocilizumab with the MoA of MBS8(1V270)” value [1, 3] was “does not interfere”, the “effect of tocilizumab pre-medication on cytokine and chemokine levels expected to play a role for the anti-tumor activity of MBS8(1V270)” value ([1]; tocilizumab 8 mg/kg prior to MBS8(1V270) 0.1 mg/kg IV infusion on day 1, plasma pre-dose, 2 h, 8 h, 24 h post-end of infusion) was “does not downregulate” and the “CRS observed (clinical signs, CTCAE v5.0)” value ([2]; patient 4-7 pretreated with tocilizumab 8 mg/kg before MBS8(1V270) 0.1 mg/kg) was “No clinical signs of CRS; also recorded: no CRS observed at any dosing occasion”. The “CRS experienced, number of dosing occasions” value [2, 4] was 0 of the 14 and the “CRS experienced, percent of dosing occasions” value [2, 4] was 0%.
